Results taken from patent US20080051387A1, “TETRAHYDROPYRIDO[3,4-D]PYRIMIDINES AND RELATED ANALOGUES” (priority 2006, published 2008).

What follows are molecules tested against T1, chimeric human H3 receptor (Homo sapiens, UniProt Q9Y5N1) (assay: Chimeric human H3 receptor screening GTP binding assay (inhibition of histamine-stimulated GTP-gamma35S binding, Example 8)). Details: 1 h; assay described in Example 8; symbol "!" in column headed Ki; read-out: Ki ("!": percent inhibition of agonist-induced GTP-gammaS binding to H3).
T1 construct: rat Galpha-i2 (Gnai2, rat); made in house; host or cells: Sf9 insect cells (baculovirus); P2 membranes
Assay type: biochemical
Procedure, shortened: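 Compound tested at 4 μM against 1 μM histamine stimulation; 125 pM GTP-gamma35S binding measured by filtration and scintillation after 60 min at room temperature. Membranes from Sf9 cells expressing chimeric human H3 plus G-protein subunits, in Tris pH 7.4/NaCl/MgCl2/GDP buffer; values are % inhibition after nonspecific subtraction.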

T1 sequence (Q9Y5N1 with tags, fused parts or gaps): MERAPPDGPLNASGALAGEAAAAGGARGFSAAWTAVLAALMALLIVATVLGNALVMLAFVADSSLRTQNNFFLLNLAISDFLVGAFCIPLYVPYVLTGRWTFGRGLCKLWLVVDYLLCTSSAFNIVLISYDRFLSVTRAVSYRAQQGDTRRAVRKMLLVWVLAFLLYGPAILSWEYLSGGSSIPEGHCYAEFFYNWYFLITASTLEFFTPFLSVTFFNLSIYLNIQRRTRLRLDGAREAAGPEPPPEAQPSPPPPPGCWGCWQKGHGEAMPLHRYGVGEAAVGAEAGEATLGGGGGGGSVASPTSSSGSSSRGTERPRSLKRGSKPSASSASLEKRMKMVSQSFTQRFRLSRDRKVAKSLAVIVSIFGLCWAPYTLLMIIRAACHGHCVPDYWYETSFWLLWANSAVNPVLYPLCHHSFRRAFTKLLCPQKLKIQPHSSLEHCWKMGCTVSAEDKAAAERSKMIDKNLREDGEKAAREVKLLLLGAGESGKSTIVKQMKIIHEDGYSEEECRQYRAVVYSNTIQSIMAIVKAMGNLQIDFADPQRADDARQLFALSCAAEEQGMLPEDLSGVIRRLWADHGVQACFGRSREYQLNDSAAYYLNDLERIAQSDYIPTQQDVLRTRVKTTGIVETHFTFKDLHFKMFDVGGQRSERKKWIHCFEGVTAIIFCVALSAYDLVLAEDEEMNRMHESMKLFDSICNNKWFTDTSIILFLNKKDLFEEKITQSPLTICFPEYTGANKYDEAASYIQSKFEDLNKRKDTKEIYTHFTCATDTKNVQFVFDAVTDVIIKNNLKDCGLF

| inhibition at 4 µM [%] | Compound |
| --- | --- |
| ≥ 90 | CCCCc1ccc(C(=O)N2CCc3cnc(N4CCN(C5CCC5)CC4)nc3CC2)nc1 [Compound 489, 7-[(5-butylpyridin-2-yl)carbonyl]-2-(4-cyclobutylpiperazin-1-yl)-6,7,8,9-tetrahydro-5H-pyrimido[4,5-d]azepine] |
| ≥ 90 | COc1cc(C(=O)N2CCc3cnc(N4CCN(C5CCC5)CC4)nc3CC2)nc2ccccc12 [Compound 490, 2-(4-cyclobutylpiperazin-1-yl)-7-[(4-methoxyquinolin-2-yl)carbonyl]-6,7,8,9-tetrahydro-5H-pyrimido[4,5-d]azepine] |
| ≥ 90 | O=C(c1cc(Cl)nc(Cl)c1)N1CCc2cnc(N3CCN(C4CCC4)CC3)nc2CC1 [Compound 491, 2-(4-cyclobutylpiperazin-1-yl)-7-(2,6-dichloroisonicotinoyl)-6,7,8,9-tetrahydro-5H-pyrimido[4,5-d]azepine] |
| ≥ 90 | O=C(c1ccnc2ccccc12)N1CCc2cnc(N3CCN(C4CCC4)CC3)nc2CC1 [Compound 492, 2-(4-cyclobutylpiperazin-1-yl)-7-(quinolin-4-ylcarbonyl)-6,7,8,9-tetrahydro-5H-pyrimido[4,5-d]azepine] |
| ≥ 90 | O=C(c1cccnc1Sc1ccc(Cl)cc1)N1CCc2cnc(N3CCN(C4CCC4)CC3)nc2CC1 [Compound 493, 7-({2-[(4-chlorophenyl)thio]pyridin-3-yl}carbonyl)-2-(4-cyclobutylpiperazin-1-yl)-6,7,8,9-tetrahydro-5H-pyrimido[4,5-d]azepine] |
| ≥ 90 | CC(C)(C)c1ccc(Oc2ncccc2C(=O)N2CCc3cnc(N4CCN(C5CCC5)CC4)nc3CC2)cc1 [Compound 494, 7-{[2-(4-tert-butylphenoxy)pyridin-3-yl]carbonyl}-2-(4-cyclobutylpiperazin-1-yl)-6,7,8,9-tetrahydro-5H-pyrimido[4,5-d]azepine] |
| ≥ 90 | O=C(c1cccnc1Oc1ccccc1)N1CCc2cnc(N3CCN(C4CCC4)CC3)nc2CC1 [Compound 495, 2-(4-cyclobutylpiperazin-1-yl)-7-[(2-phenoxypyridin-3-yl)carbonyl]-6,7,8,9-tetrahydro-5H-pyrimido[4,5-d]azepine] |
| ≥ 90 | O=C(c1cccnc1Sc1ccccc1)N1CCc2cnc(N3CCN(C4CCC4)CC3)nc2CC1 [Compound 496, 2-(4-cyclobutylpiperazin-1-yl)-7-{[2-(phenylthio)pyridin-3-yl]carbonyl}-6,7,8,9-tetrahydro-5H-pyrimido[4,5-d]azepine] |
| ≥ 90 | O=C(c1cccnc1Oc1ccc(Cl)cc1)N1CCc2cnc(N3CCN(C4CCC4)CC3)nc2CC1 [Compound 497] |
| ≥ 90 | COc1ncccc1C(=O)N1CCc2cnc(N3CCN(C4CCC4)CC3)nc2CC1 [Compound 498, 2-(4-cyclobutylpiperazin-1-yl)-7-[(2-methoxypyridin-3-yl)carbonyl]-6,7,8,9-tetrahydro-5H-pyrimido[4,5-d]azepine] |
| ≥ 90 | C=CCSc1ncccc1C(=O)N1CCc2cnc(N3CCN(C4CCC4)CC3)nc2CC1 [Compound 499, 7-{[2-(allythio)pyridin-3-yl]carbonyl}-2-(4-cyclobutylpiperazin-1-yl)-6,7,8,9-tetrahydro-5H-pyrimido[4,5-d]azepine] |
| ≥ 90 | COc1ccc(OC)c(Sc2ncccc2C(=O)N2CCc3cnc(N4CCN(C5CCC5)CC4)nc3CC2)c1 [Compound 500, 2-(4-cyclobutylpiperazin-1-yl)-7-({2-[(2,5-dimethoxyphenyl)thio]pyridin-3-yl}carbonyl)-6,7,8,9-tetrahydro-5H-pyrimido[4,5-d]azepine] |
| ≥ 90 | CSc1ncccc1C(=O)N1CCc2cnc(N3CCN(C4CCC4)CC3)nc2CC1 [Compound 501, 2-(4-cyclobutylpiperazin-1-yl)-7-{[2-(methylthio)pyridin-3-yl]carbonyl}-6,7,8,9-tetrahydro-5H-pyrimido[4,5-d]azepine] |
